In patent US11319299B2, “Substituted carboxamides as inhibitors of WDR5 protein-protein binding” (PROPELLON THERAPEUTICS INC., priority 2016, dated 2022):

Biological target: WDR5 (Homo sapiens (Human), UniProt P61964)
Assay: Surface Plasmon Resonance (SPR) assay, KD and residence time
Type: binding
Conditions: surface plasmon resonance (SPR) assay; read-out: WDR5 binding affinity (KD)

Kd	SMILES
3 nM	C[C@@H]1CN(c2cc(F)c(-c3ccnc(OCC(C)(C)C)c3)cc2NC(=O)c2c[nH]c(=O)cc2C(F)(F)F)C[C@H](C)N1C [Example 293, N-[5-[2-(2,2-dimethylpropoxy)pyridin-4-yl]-4-fluoro-2-[(3R,5S)-3,4,5-trimethylpiperazin-1-yl]phenyl]-6-oxo-4-(trifluoromethyl)-1H-pyridine-3-carboxamide]
4.06 nM	C[C@@H]1CN(c2cc(F)c(-c3ccc(N4CCCC4)cc3)cc2NC(=O)c2c[nH]c(=O)cc2C(F)(F)F)C[C@H](C)N1C [Example 114, N-[4-fluoro-5-(4-pyrrolidin-1-ylphenyl)-2-[(3R,5S)-3,4,5-trimethylpiperazin-1-yl]phenyl]-6-oxo-4-(trifluoromethyl)-1H-pyridine-3-carboxamide]
13.3 nM	C[C@@H]1CN(c2cc(F)c(N3CCN(c4ncccn4)CC3)cc2NC(=O)c2c[nH]c(=O)cc2C(F)(F)F)C[C@H](C)N1C [Example 393, N-[4-fluoro-5-(4-pyrimidin-2-ylpiperazin-1-yl)-2-[(3R,5S)-3,4,5-trimethylpiperazin-1-yl]phenyl]-6-oxo-4-(trifluoromethyl)-1H-pyridine-3-carboxamide]
0.508 nM	C[C@@H]1CN(c2cc(F)c(-c3ccc(C#N)cc3)cc2NC(=O)c2c[nH]c(=O)cc2C(F)(F)F)C[C@H](C)N1C [Example 100, N-[5-(4-cyanophenyl)-4-fluoro-2-[(3R,5S)-3,4,5-trimethylpiperazin-1-yl]phenyl]-6-oxo-4-(trifluoromethyl)-1H-pyridine-3-carboxamide]
1.16 nM	C[C@@H]1CN(c2cc(F)c(-c3cnc(N4CCOC[C@H]4C)nc3)cc2NC(=O)c2c[nH]c(=O)cc2C(F)(F)F)CCN1C (stereo in doubt) [Example 337, N-[4-fluoro-2-[(3R)-3,4-dimethylpiperazin-1-yl]-5-[2-[(3R)-3-methylmorpholin-4-yl]pyrimidin-5-yl]phenyl]-6-oxo-4-(trifluoromethyl)-1H-pyridine-3-carboxamide]
> 200 nM	CC1CN(c2cc(F)c(-c3cnc(N4CCOCC4)nc3)cc2NC(=O)c2csc(CN(C)C)n2)CCN1C (stereo in doubt) [Example 182, 2-[(dimethylamino)methyl]-N-[4-fluoro-5-(2-morpholin-4-ylpyrimidin-5-yl)-2-[(3R)-3,4-dimethylpiperazin-1-yl]phenyl]-1,3-thiazole-4-carboxamide]
4.76 nM	C[C@@H]1CN(c2cc(F)c(C3=CCN(Cc4ccsc4)CC3)cc2NC(=O)c2c[nH]c(=O)cc2C(F)(F)F)C[C@H](C)N1C [Example 155, N-[4-fluoro-2-[(3R,5S)-3,4,5-trimethylpiperazin-1-yl]-5-[1-(thiophen-3-ylmethyl)-3,6-dihydro-2H-pyridin-4-yl]phenyl]-6-oxo-4-(trifluoromethyl)-1H-pyridine-3-carboxamide]
275 nM	C[C@@H]1CN(c2cc(F)c(C3CN=C(N4CCOCC4)NC3)cc2NC(=O)c2c[nH]c(=O)cc2C(F)(F)F)C[C@H](C)N1C (stereo partly drawn) [Example 339, N-[4-fluoro-5-(2-morpholin-4-yl-1,4,5,6-tetrahydropyrimidin-5-yl)-2-[(3R,5S)-3,4,5-trimethylpiperazin-1-yl]phenyl]-6-oxo-4-(trifluoromethyl)-1H-pyridine-3-carboxamide]
0.31 nM	C[C@@H]1CN(c2ncc(-c3cc(NC(=O)c4ccc(F)cc4C(F)(F)F)c(N4C[C@@H](C)N(C)[C@@H](C)C4)cc3F)cn2)C[C@H](C)N1C [Example 381, 4-fluoro-N-[4-fluoro-2-[(3R,5S)-3,4,5-trimethylpiperazin-1-yl]-5-[2-[(3R,5S)-3,4,5-trimethylpiperazin-1-yl]pyrimidin-5-yl]phenyl]-2-(trifluoromethyl)benzamide]

Same assay, conditions: surface plasmon resonance (SPR); read-out: WDR5 binding affinity (KD)

Kd	SMILES
1.84 nM	C[C@@H]1CN(c2cc(F)c(C3=CCCN(c4ncc(C#N)s4)C3)cc2NC(=O)c2c[nH]c(=O)cc2C(F)F)C[C@H](C)N1C [Example 687, N-[5-[1-(5-cyano-1,3-thiazol-2-yl)-3,6-dihydro-2H-pyridin-5-yl]-4-fluoro-2-[(3R,5S)-3,4,5-trimethylpiperazin-1-yl]phenyl]-4-(difluoromethyl)-6-oxo-1H-pyridine-3-carboxamide]
1.85 nM	C[C@@H]1CN(c2cc(F)c(-c3ncc(C(=O)N4CCOCC4)s3)cc2NC(=O)c2c[nH]c(=O)cc2C(F)(F)F)C[C@H](C)N1C [Example 500, N-[4-fluoro-5-[5-(morpholine-4-carbonyl)-1,3-thiazol-2-yl]-2-[(3R,5S)-3,4,5-trimethylpiperazin-1-yl]phenyl]-6-oxo-4-(trifluoromethyl)-1H-pyridine-3-carboxamide]
2.43 nM	C[C@@H]1CN(c2ccc(-c3cc(NC(=O)c4cn(C)c(=O)cc4C(F)(F)F)c(N4C[C@@H](C)N(C)[C@@H](C)C4)cc3F)cn2)C[C@H](C)O1 [Example 422, N-[4-fluoro-5-[6-[(2R,6S)-2,6-dimethylmorpholin-4-yl]pyridin-3-yl]-2-[(3S,5R)-3,4,5-trimethylpiperazin-1-yl]phenyl]-1-methyl-6-oxo-4-(trifluoromethyl)pyridine-3-carboxamide]
1.91 nM	C[C@@H]1CN(c2cc(F)c(C3=CCN(C(=O)N4CCCC4)C3)cc2NC(=O)c2c[nH]c(=O)cc2C(F)(F)F)C[C@H](C)N1C [Example 441, N-[4-fluoro-5-[1-(pyrrolidine-1-carbonyl)-2,5-dihydropyrrol-3-yl]-2-[(3R,5S)-3,4,5-trimethylpiperazin-1-yl]phenyl]-6-oxo-4-(trifluoromethyl)-1H-pyridine-3-carboxamide]
1.06 nM	C[C@@H]1CN(c2cc(F)c(-c3cnc(N4CCC(C)(O)CC4)nc3)cc2NC(=O)c2c[nH]c(=O)cc2C(F)(F)F)C[C@H](C)N1C [Example 425, N-[4-fluoro-5-[2-(4-hydroxy-4-methylpiperidin-1-yl)pyrimidin-5-yl]-2-[(3R,5S)-3,4,5-trimethylpiperazin-1-yl]phenyl]-6-oxo-4-(trifluoromethyl)-1H-pyridine-3-carboxamide]
3.54 nM	C[C@@H]1CN(c2cc(F)c(-c3cnc(N4CCOCC4)nc3)cc2NC(=O)c2c[nH]c(=O)cc2C(F)(F)F)C[C@H](C)[N+]1(C)C [Example 479, N-[4-fluoro-5-(2-morpholin-4-ylpyrimidin-5-yl)-2-[(3R,5S)-3,4,4,5-tetramethylpiperazin-4-ium-1-yl]phenyl]-6-oxo-4-(trifluoromethyl)-1H-pyridine-3-carboxamide]
0.609 nM	CC1CN(c2cc(F)c(-c3cnc(N4CCC(C)(O)CC4)nc3)cc2NC(=O)c2c[nH]c(=O)cc2C(F)(F)F)CCN1C (stereo in doubt) [Example 424, N-[4-fluoro-5-[2-(4-hydroxy-4-methylpiperidin-1-yl)pyrimidin-5-yl]-2-[(3R)-3,4-dimethylpiperazin-1-yl]phenyl]-6-oxo-4-(trifluoromethyl)-1H-pyridine-3-carboxamide]
69.5 nM	C[C@@H]1CN(c2cc(F)c(-c3cc(C(N)=O)c(F)cc3F)cc2NC(=O)c2ccc(F)cc2C(F)(F)F)C[C@H](C)N1C [Example 634, 2,4-difluoro-5-[2-fluoro-5-[[4-fluoro-2-(trifluoromethyl)benzoyl]amino]-4-[(3R,5S)-3,4,5-trimethylpiperazin-1-yl]phenyl]benzamide]
0.29 nM	C[C@@H]1CN(c2nccc(-c3cc(NC(=O)c4ccc(F)cc4C(F)(F)F)c(N4CCN(C)[C@H](C)C4)cc3F)n2)CCO1 (stereo in doubt) [Example 660, 4-fluoro-N-[4-fluoro-2-[(3R)-3,4-dimethylpiperazin-1-yl]-5-[2-[(2R)-2-methylmorpholin-4-yl]pyrimidin-4-yl]phenyl]-2-(trifluoromethyl)benzamide]
1.09 nM	CC1CN(c2cc(F)c(-c3cnc(N4CCN(C(C)(C)C)CC4)nc3)cc2NC(=O)c2ccc(F)cc2C(F)(F)F)CCN1C (stereo in doubt) [Example 557, N-[5-[2-(4-tert-butylpiperazin-1-yl)pyrimidin-5-yl]-4-fluoro-2-[(3R)-3,4-dimethylpiperazin-1-yl]phenyl]-4-fluoro-2-(trifluoromethyl)benzamide]
0.457 nM	C[C@@H]1CN(c2cc(F)c(C3=CCN(c4ncc(CN5CCOCC5)cn4)CC3)cc2NC(=O)c2c[nH]c(=O)cc2C(F)(F)F)C[C@H](C)N1C [Example 406, N-[4-fluoro-5-[1-[5-(morpholin-4-ylmethyl)pyrimidin-2-yl]-3,6-dihydro-2H-pyridin-4-yl]-2-[(3R,5S)-3,4,5-trimethylpiperazin-1-yl]phenyl]-6-oxo-4-(trifluoromethyl)-1H-pyridine-3-carboxamide]
3.23 nM	CC(C)N1CCN(c2ncc(-c3cc(NC(=O)c4cn(C)c(=O)cc4C(F)(F)F)c(N4C[C@@H](C)N(C)[C@@H](C)C4)cc3F)cn2)CC1 [Example 661, N-[4-fluoro-5-[2-(4-propan-2-ylpiperazin-1-yl)pyrimidin-5-yl]-2-[(3R,5S)-3,4,5-trimethylpiperazin-1-yl]phenyl]-1-methyl-6-oxo-4-(trifluoromethyl)pyridine-3-carboxamide]
3.39 nM	C[C@@H]1CN(c2ccc(-c3cc(NC(=O)c4cn(C)c(=O)cc4C(F)F)c(N4CCN(C)[C@H](C)C4)cc3F)cn2)CCO1 (stereo in doubt) [Example 519, 4-(difluoromethyl)-N-[4-fluoro-2-[(3R)-3,4-dimethylpiperazin-1-yl]-5-[6-[(2R)-2-methylmorpholin-4-yl]pyridin-3-yl]phenyl]-1-methyl-6-oxopyridine-3-carboxamide]
5.18 nM	CC1CN(c2cc(F)c(C3=CCCN(c4ncc(C=O)cn4)C3)cc2NC(=O)c2ccc(F)cc2C(F)(F)F)CCN1C (stereo in doubt) [Example 650, 4-fluoro-N-[4-fluoro-5-[1-(5-formylpyrimidin-2-yl)-3,6-dihydro-2H-pyridin-5-yl]-2-[(3R)-3,4-dimethylpiperazin-1-yl]phenyl]-2-(trifluoromethyl)benzamide]
1.52 nM	C[C@@H]1CN(c2cc(F)c(-c3cc(F)c(=O)n(C)c3)cc2NC(=O)c2c[nH]c(=O)cc2C(F)(F)F)C[C@H](C)N1C [Example 564, N-[4-fluoro-5-(5-fluoro-1-methyl-6-oxopyridin-3-yl)-2-[(3R,5S)-3,4,5-trimethylpiperazin-1-yl]phenyl]-6-oxo-4-(trifluoromethyl)-1H-pyridine-3-carboxamide]
